# Bridge positions count the residues as written; N and C are the ends. Square brackets hold non-standard residues; d marks the D form. Peptide text beside a SMILES is read from it. * marks the point of attachment. Ileψ(thiazoline)Cys = CC[C@H](C)[C@H](N)C1=N[C@H](C(=O)*)CS1; dOrn = NCCC[C@@H](N)C(=O)O
# Assays:
# [1] = system: Klebsiella pneumoniae X26; assay type: cell-based; conditions: K. pneumoniae X26; agar dilution
# Description: (§1) The MIC's in Tables VII and VIII were determined by standard agar-dilution assays.
# [2] = system: Pseudomonas aeruginosa X239; assay type: cell-based; conditions: P. aeruginosa X239; agar dilution
# Description: as §1
# [3] = system: Staphylococcus aureus X1.1; assay type: cell-based; conditions: S. aureus X1.1; agar dilution
# Description: as §1
# [4] = system: Staphylococcus aureus X400; assay type: cell-based; conditions: S. aureus X400, methicillin-resistant strain; agar dilution
# Description: as §1
# [5] = system: Streptococcus Group D X66; assay type: cell-based; conditions: agar dilution
# Description: as §1
# [6] = system: Staphylococcus epidermidis 222; assay type: cell-based; conditions: S. epidermidis 222; agar dilution
# Description: as §1
# [7] = system: Haemophilus influenzae 76; assay type: cell-based; conditions: H. influenzae 76, ampicillin-resistant strain; agar dilution
# Description: as §1
# [8] = system: Haemophilus influenzae C.L.; assay type: cell-based; conditions: H. influenzae C.L., ampicillin-sensitive strain; agar dilution
# Description: as §1
# [9] = system: Streptococcus pyogenes C203; assay type: cell-based; conditions: S. pyogenes C203; agar dilution
# Description: as §1
# [10] = system: Streptococcus Group D 2041; assay type: cell-based; conditions: agar dilution
# Description: as §1
# Escherichia coli EC14 = assay type: cell-based; conditions: E. coli EC14; agar dilution
# Description: as §1
# [11] = system: Staphylococcus epidermidis 270; assay type: cell-based; conditions: S. epidermidis 270; agar dilution
# Description: as §1
# [12] = system: Staphylococcus aureus V41; assay type: cell-based; conditions: S. aureus V41, penicillin-resistant strain; agar dilution
# Description: as §1
# [13] = system: Streptococcus pneumoniae Park I; assay type: cell-based; conditions: S. pneumoniae Park I; agar dilution
# Description: as §1
# Staphylococcus aureus = assay: protection of mice experimentally infected with test organism (Table X); assay type: in vivo; conditions: mice, subcutaneous, 1 and 4 hours postinfection
# Description: (§2) The A82846 antibiotics have also shown in vivo antimicrobial activity against experimentally-induced infections in laboratory animals. When two doses of test compound were administered to mice experimentally infected with the test organism, the activity observed was measured as an ED50 value [effective dose in mg/kg to protect 50% of the test animals: see Warren Wick, et al., J. Bacteriol. 81, 233-235 (1961)].
# (§3) ^a mg/kg × 2; doses administered subcutaneously to mice 1 and 4
# Streptococcus pneumoniae = assay: as above; assay type: in vivo; conditions: mice, subcutaneous, 1 and 4 hours postinfection
# Description: as §2, §3
# Streptococcus pyogenes = assay: as above; assay type: in vivo; conditions: mice, subcutaneous, 1 and 4 hours postinfection
# Description: as §2, §3
# [14] = system: Cultures A82846 and A82846.1; assay: resistance to antibiotics, antibiotic sensitivity discs on seeded agar plates
# N. aerocolonigenes = assay: resistance to antibiotics, sensitivity discs (Table III); assay type: cell-based, Nocardia aerocolonigenes
# A82846 = assay: as above; assay type: cell-based, Nocardia orientalis; conditions: culture A82846
# N. orientalis = assay: as above; assay type: cell-based, Nocardia orientalis
molecule,measurement,setting,value
CN[C@@H](CC(C)C)C(=O)N[C@H]1C(=O)N[C@H](CC(N)=O)C(=O)N[C@H]2C(=O)N[C@H]3C(=O)N[C@@H](C(=O)NC(C(=O)O)c4cc(O)cc(O)c4-c4cc3ccc4O)[C@@H](O[C@H]3C[C@](C)(N)[C@H](O)[C@@H](C)O3)c3ccc(cc3)Oc3cc2cc(c3O[C@H]2O[C@@H](CO)[C@@H](O)[C@H](O)[C@@H]2O[C@H]2C[C@](C)(N)[C@H](O)[C@@H](C)O2)Oc2ccc(cc2)[C@@H]1O (stereo partly drawn) [A82846C],MIC,[1],"-- (Not active at 128 mcg/mL, the highest level tested)"
same,MIC,[2],"-- (Not active at 128 mcg/mL, the highest level tested)"
same,MIC,[3],1 µg/mL
same,MIC,[4],1 µg/mL
same,MIC,[5],2 µg/mL
same,MIC,[6],1 µg/mL
same,MIC,[7],"-- (Not active at 128 mcg/mL, the highest level tested)"
same,MIC,[8],"-- (Not active at 128 mcg/mL, the highest level tested)"
same,MIC,[9],1 µg/mL
same,MIC,[10],4 µg/mL
same,MIC,Escherichia coli EC14,"-- (Not active at 128 mcg/mL, the highest level tested)"
same,MIC,[11],1 µg/mL
same,MIC,[12],1 µg/mL
same,MIC,[13],2 µg/mL
same,ED50 Value,Staphylococcus aureus,2.18 mg/kg × 2
same,ED50 Value,Streptococcus pneumoniae,5.87 mg/kg × 2
same,ED50 Value,Streptococcus pyogenes,2.71 mg/kg × 2
CC[C@H](C)[C@H](N)C1=N[C@H](C(=O)N[C@@H](CC(C)C)C(=O)N[C@H](CCC(=O)O)C(=O)N[C@H](C(=O)N[C@H]2CCCCNC(=O)[C@H](CC(N)=O)NC(=O)[C@@H](CC(=O)O)NC(=O)[C@H](Cc3cnc[nH]3)NC(=O)[C@@H](Cc3ccccc3)NC(=O)[C@H]([C@@H](C)CC)NC(=O)[C@@H](CCCN)NC2=O)[C@@H](C)CC)CS1 [bacitracin] ({Ileψ(thiazoline)Cys}-L[dE]IK[dOrn]I[dF]H[dD]N; lactam 4-C),antibiotic resistance,[14]; disc 10 units,resistant
CC(=O)OCC1=C(C(=O)O)N2C(=O)[C@@H](NC(=O)Cc3cccs3)[C@H]2SC1 [cephalothin],antibiotic resistance,[14]; disc 30 μg,resistant
O=C(N[C@H](CO)[C@H](O)c1ccc([N+](=O)[O-])cc1)C(Cl)Cl [chloramphenicol],antibiotic resistance,[14]; disc 30 μg,sensitive
CC[C@H]1OC(=O)[C@H](C)[C@@H](O[C@H]2C[C@@](C)(OC)[C@@H](O)[C@H](C)O2)[C@H](C)[C@@H](O[C@@H]2O[C@H](C)C[C@H](N(C)C)[C@H]2O)[C@](C)(O)C[C@@H](C)C(=O)[C@H](C)[C@@H](O)[C@]1(C)O [erythromycin],antibiotic resistance,[14]; disc 15 μg,resistant
CCC[C@@H]1C[C@@H](C(=O)N[C@@H]([C@H]2O[C@H](SC)[C@H](O)[C@@H](O)[C@H]2O)[C@@H](C)O)N(C)C1 [lincomycin],antibiotic resistance,[14]; disc 2 μg,resistant
C1N2CN3CN1CN(C2)C3 [mandelamine],antibiotic resistance,[14]; disc 3 μg,sensitive
CCn1cc(C(=O)O)c(=O)c2ccc(C)nc21 [nalidixic acid],antibiotic resistance,[14]; disc 30 μg,resistant
CO[C@@H]1[C@@H](OC(N)=O)[C@@H](O)[C@H](Oc2ccc3c(O)c(NC(=O)c4ccc(O)c(CC=C(C)C)c4)c(=O)oc3c2C)OC1(C)C [novobiocin],antibiotic resistance,[14]; disc 30 μg,sensitive
CO[C@H]1C[C@H](O[C@H]2[C@H](C)[C@@H](O[C@@H]3O[C@H](C)C[C@H](N(C)C)[C@H]3O)[C@@H](C)C[C@@]3(CO3)C(=O)[C@H](C)[C@@H](O)[C@@H](C)[C@@H](C)OC(=O)[C@@H]2C)O[C@@H](C)[C@@H]1O [oleandomycin],antibiotic resistance,[14]; disc 15 μg,resistant
CC1(C)S[C@@H]2[C@H](NC(=O)Cc3ccccc3)C(=O)N2[C@H]1C(=O)O [penicillin G],antibiotic resistance,[14]; disc 10 units,resistant
CO[C@H]1/C=C/O[C@@]2(C)Oc3c(C)c(O)c4c(O)c(c(/C=N/N5CCN(C)CC5)c(O)c4c3C2=O)NC(=O)/C(C)=C\C=C\[C@H](C)[C@H](O)[C@@H](C)[C@@H](O)[C@@H](C)[C@H](OC(C)=O)[C@@H]1C [rifampin],antibiotic resistance,[14]; disc 5 μg,sensitive
[H]/N=C(/N)N[C@H]1[C@H](O)[C@@H](O)[C@H](O[C@@H]2O[C@@H](C)[C@](O)(C=O)[C@H]2O[C@@H]2O[C@@H](CO)[C@H](O)[C@@H](O)[C@@H]2NC)[C@@H](N/C(N)=N\[H])[C@@H]1O [streptomycin],antibiotic resistance,[14]; disc 10 μg,resistant
Nc1ccc(S(=O)(=O)Nc2ncccn2)cc1 [sulfadiazine],antibiotic resistance,[14]; disc 300 μg,resistant
CN(C)C1C(=O)C(C(N)=O)=C(O)C2(O)C(=O)C3=C(O)c4c(O)cccc4C(C)(O)C3CC12 (stereo not drawn) [tetracycline],antibiotic resistance,[14]; disc 30 μg,sensitive
NC[C@H]1O[C@H](O[C@H]2[C@H](O)[C@@H](O[C@H]3O[C@H](CO)[C@@H](O)[C@H](N)[C@H]3O)[C@H](N)C[C@@H]2N)[C@H](N)C[C@@H]1O [tobramycin],antibiotic resistance,[14]; disc 10 μg,resistant
COc1cc(Cc2cnc(N)nc2N)cc(OC)c1OC [trimethoprim],antibiotic resistance,[14]; disc 5 μg,resistant
gentamicin,Resistance to,N. aerocolonigenes; 10 μg,-
same,Resistance to,A82846; 10 μg,+
same,Resistance to,N. orientalis; 10 μg,-
same,antibiotic resistance,[14]; disc 10 μg,resistant
neomycin,Resistance to,N. aerocolonigenes; 30 μg,-
same,Resistance to,A82846; 30 μg,-
same,Resistance to,N. orientalis; 30 μg,-
same,antibiotic resistance,[14]; disc 30 μg,sensitive
polymixin B,Resistance to,N. aerocolonigenes; 300 units,+
same,Resistance to,A82846; 300 units,+
same,Resistance to,N. orientalis; 300 units,+
same,antibiotic resistance,[14]; disc 300 units,resistant

# From patent US5843437A, “A82846 antibiotics” (Eli Lilly and Company, priority 1995, dated 1998)
